Like-named read-outs stand apart in the source and are kept apart here.
Columns and labels:
[1] = cited from earlier work
[2] = pH 4.5; cited from earlier work
[3] = test system: Actinobacillis pleuropneumonia Type 7
Experimental: (§1) The mixture and solution of the invention was tested in 100 to 200 pound pigs. […] A 30 pig pen was used as a non-treated control group to measure the efficacy of the treatment.

all bacteria = assay: Sensitivity results by the University Diagnostic Laboratory, all bacteria (Example 6 table)
Experimental: as §1

Experimental for Pasturella multocida: as §1
Text for Step suis type 2: A farm was selected which was known to have problems with Step suis type 2 in its nursery pigs. The experiment involved two groups of 30 pigs, each group was in the same room, but in separate pens. Each pig was individually tagged and a tonsilar swab was done on day one and day seven. Cultures were run on all the swabs.
Experimental for Streptococcus suis Sp.: as §1

In the case of `CC1(C)S[C@@H]2[C@H](NC(=O)[C@H](N)c3ccccc3)C(=O)N2[C@H]1C(=O)O` [ampicillin], the “pH on dissolution with sodium carbonate” value ([1]; 95 mole-% of sodium carbonate) is listed as 8.3 and the “Mole-% of sodium carbonate sufficient to dissolve” value ([1]; pH 8.3) is listed as 95 mole-%.
For `CC1=C(C(=O)O)N2C(=O)[C@@H](NC(=O)[C@H](N)c3ccccc3)[C@H]2SC1` [cephalexin monohydrate], the Neutrally charged fraction [2] is listed as 100%.
In the case of `CC1=C(C(=O)O)N2C(=O)[C@@H](NC(=O)[C@H](N)c3ccccc3)[C@H]2SC1` [cephalexin, α-aminobenzyl-3-desacetoxycephalosporin], the Sensitivity to cephalexin (Streptococcus suis Sp.) is reported as “showed sensitivity”, the “Sensitivity of the organism” value (Step suis type 2; isolates from treated group) is reported as “sensitive” and the “Sensitivity of the organism” value (Step suis type 2; isolates from untreated control group) is reported as “sensitive”. The Sensitivity to cephalexin (Pasturella multocida) was “showed sensitivity”, the Sensitivity to cephalexin [3] was “showed sensitivity” and the “Sensitivity results by the University Diagnostic Laboratory” value (all bacteria; control group of 30 pigs) was “sensitive to cephalexin”. The “Sensitivity results by the University Diagnostic Laboratory” value (all bacteria; treated group of 970 pigs) was “sensitive to cephalexin”.
For `CC1(C)S[C@@H]2[C@H](NC(=O)[C@H](N)c3ccccc3)C(=O)N2[C@H]1C(=O)O` [sodium ampicillin], the “pH of aqueous solution” value ([1]; aqueous solution) is given as ~9.5.

Reference: patent publication US5721229A, “Soluble forms of cephalosporins and treatment of animals” (Veterinary Pharmacy Corporation, priority 1995, dated 1998)
